Data set [1] concerns TC-1 tumor cells expressing HPV16-E6 and HPV16-E7. As to the kind of experiment: Therapeutic efficacy against established TC-1 tumors (approximately 8 mm, treated day 25). The following applies: TC-1 s.c., treated i.v. day 25, tumors about 8 mm; for tumor growth: mean of two perpendicular diameters. It is filed as in vivo, C57BL/6 mice. The procedure: FIG. 6: Therapeutic efficacy of the EDA-HPVE7 fusion protein combined with poly I:C (pI:C). Mice were injected with 5×10^5 TC-1 cells and 25 days later, when tumor mean diameters were approximately 8 mm, they were treated intravenously with different vaccine combinations based on EDA (A). Tumor size, presented as the average of two perpendicular diameters (millimeters), was measured at regular intervals. The number of tumor-free mice on day 100 relative to the total number of animals included and the percent surviving on day 100 are indicated for each set of experiments. The p-value (*p<0.05) determined by the likelihood ratio test comparing tumor growth in the EDA-E7/pI:C treated group with tumor growth in the p:IC-treated group is indicated. The mice were sacrificed when the tumor diameters reached 20 mm or when necessary due to the sanitary status of the animals. (B) Survival curves from the immunized mice with the indicated immunogens are indicated (p values are indicated ((*p<0.05)). Pooled data of two independent experiments are shown.
THP1 cells (American Type Culture Collection ATCC, Manassas, Va.) were used for in vitro assays of monocyte activation by EDA derived fusion proteins. TC-1, tumor cells expressing HPV16-E6 and HPV16-E7 proteins derived from primary mouse lung epithelial cells, were obtained from the American Type Culture Collection (LGC Promochem, Molsheim, France). Cells were maintained in RPMI 1640 with GlutaMAX supplemented with 10% heat-inactivated fetal calf serum, 100 units/ml penicillin, 100 μg/ml streptomycin, 0.4 mg/ml geneticin and 5×10-5 mol/l 2-mercaptoethanol (Life Technologies, Cergy-Pontoise, France). 5×10^5 TC-1 cells were injected into the shaved back (left side) of C57BL/6 mice in 200 μL PBS. Tumor size, presented as the average of two perpendicular diameters (millimeters), was measured at regular intervals.
Monolix software (http://www.monolix.org/) was used for analysis of tumor growth data with non-linear mixed effect models. Mean diameters of tumors over time were fitted using the model described in equation 1.1 and treatments were compared using the likelihood ratio test.
Kaplan-Meier plots were used to analyze survival. Prism software (GraphPad Software, Inc. San Diego, USA) was used to determine the significance of differences in survival curves with a log rank test. The results of the in vivo killing analysis were analyzed by ANOVA followed by Dunnett's Multiple Comparison test. p values less than 0.05 were considered to be statistically significant.
To better evaluate the potency of EDA-HPVE7 as an antigen delivery system and as a vaccine, the therapeutic efficacy of this fusion protein was compared with that of the E7(49-57) peptide, both supplemented with TLR ligand pI:C. […]

Data set [2] concerns EL4 cells pulsed with DTc peptide. As to the kind of experiment: In vivo induction of CTL by immunization, chromium release assay. Particulars: 2 nmol i.v. in PBS, no adjuvant; spleen cells day 7, cultured 5 days; compared with peptide DTc/E7(49-57). Further details: species or system C57BL/6 mice. As to the method:
FIG. 4: In vivo induction of CTL by immunization with EDA-HPV-E7 protein or with the DTc/E7(49-57) peptide in PBS. (A) Mice were immunized i.v with 2 nmol EDA-HPV-E7 or with the DTc/E7(49-57) peptide. Seven days alter immunization, the mice were sacrificed and spleen cells were cultured in the presence or absence of DTc peptide for 5 days. CTL activity was measured using a conventional chromium release assay using EL4 cells radio labeled and pulsed with DTc peptide as target cells in the splenocytes cultures obtained from the mice immunized with the protein EDA-HPV-E7 (closed circles) ◯ with the peptide DTc/E7 (49-57) (open circles) (On the graphic, the absolute values are shown, said values are calculated by subtracting the value of lysis obtained without peptide from the value obtained in the presence of peptide). […]
It was assayed if mice immunized with the EDA-HPVE7 fusion protein developed HPVE7-specific T cell responses. […] CTL activity was measured using a conventional chromium release assay using radio labeled EL4 cells pulsed with DTc peptide or without peptide as target cells. (FIG. 4A) (On the graphic, the absolute values are shown, said values are calculated subtracting the value of lysis obtained without peptide from the value obtained in the presence of peptide). […]

Data set [3] relates to human monocyte cell line THP-1. In words: In vitro monocyte activation, TNF-α released by THP-1 (ELISA). It is filed as cell-based. Particulars: 500 nM, 15 hours. As to the method: (§1) FIG. 3: EDA-HPV-E7 fusion protein induces the production of IL-12 by bone marrow-derived dendritic cells or the production of TNF-α by the human monocyte cell line THP-1. (A) Bone marrow-derived dendritic cells were incubated for […] with EDA-HPVE7 (500 nM), with peptide E7(49-57) (500 nM), with LPS (1 μg/ml) (positive control) or with culture medium (negative control). 24 hours later, the culture supernatant was harvested and the IL-12 released to the supernatant was measured by ELISA. (B) THP-1 cells were incubated for 15 hours with EDA-HPVE7 (500 nM), with peptide E7(49-57) (500 nM), with LPS (1 μg/ml) or with culture medium (negative control). After culture, the supernatants were harvested and the released TNF-α was measured by ELISA.
THP-1 cells were plated at 1×10^6 cells/well and cultured overnight at 37° C. and 5% CO2 in complete medium for stabilization of the culture. Different concentrations of the indicated antigens were added to the cultures and after 15 hour of incubation, culture supernatants were harvested. The concentration of human TNF-α released to the medium by the THP-1 cell line was quantified using a commercial ELISA assay (BD Pharmingen), according to manufacturer's instructions.
Therefore, it was assayed if the recombinant protein EDA-HPV-E7 was also able to induce maturation of BMDC in vitro.

Data set [4] relates to HPVE7-specific T cell responses. As to the kind of experiment: IFN-γ producing cells by ELISPOT in splenocytes of immunized mice. It is filed as in vivo, C57BL/6 mice. The following applies: 2 nmol i.v. in PBS, compared with E7(49-57) peptide.
For data set [5], the system named is bone marrow-derived dendritic cells. In words: IL-12 production by bone marrow-derived dendritic cells (ELISA). It is filed as cell-based, mouse. Particulars: 500 nM; ELISA of culture supernatant. The procedure: as §1
(§2) Bone marrow (BM)-derived dendritic cells were generated from mouse femur marrow cell cultures. […] After 24 h of culture, supernatants were harvested and IL-12 (p70) and TNF-α were measured by ELISA (BD-Pharmingen), according to manufacturer's instructions. Expression of DC maturation markers was measured by flow cytometry. […] After this initial incubation, cells were stained with the primary antibodies at 4° C. for 15 min, washed and acquired on FACSscan cytometer (BD Biosciences, San Diego, Calif.) and analyzed using Cell Quest software (BD Biosciences). […]
For orientation: An ELISA detects its analyte on a solid surface through an enzyme-linked reagent.

Data set [6] has the same test system. As to the kind of experiment: Maturation of bone marrow-derived dendritic cells, maturation markers by flow cytometry. The following applies: BMDC incubated with 500 nM. It is filed as cell-based, mouse. As to the method:
FIG. 2: Activation of bone marrow-derived dendritic cell maturation by the EDAHPV-E7 fusion protein. Bone marrow-derived dendritic cells were incubated for 48 hours with EDA-HPVE7 (500 nM), with peptide E7(49-57) (500 nM), with LPS (1 μg/ml) (positive control) or with culture medium (Control Neg). Cells were then harvested and analyzed by flow cytometry for the expression of the H-2b molecule or the maturation markers CD54 and CD86 (RFU: Relative fluorescence units).
as §2, with “cultures. After lysing erythrocytes with ACK lysing buffer, bone marrow cell were washed and subsequently depleted of lymphocytes and granulocytes by incubation with a mixture of antibodies against CD4 (GK1; ATCC, Manassas, Va.), CD8 (53.6.72; ATCC), Ly-6G/Gr1 (BD-Pharmingen; San Diego, Calif.) and CD45R/B220 (BD-Pharmingen) followed by rabbit complement.” for “cultures.”
On the technique in general: In flow cytometry, cells or beads pass a laser one at a time.

Take “Polyinosinic-polycytidylic acid [pI:C, reference compound]”: in data set [1] (Kaplan-Meier, log rank test), the survival entry is “slight, statistically non-significant prolongation of survival”. For the same substance, the tumor growth result in data set [1] is recorded as “followed the same tumor growth kinetics”.
Turning to “EDA-HPVE7: recombinant fusion protein: amino acids 1-29 of HPV-E7 at N-terminus of fibronectin EDA, amino acids 43-98 at C-terminus, six histidine residues”, in data set [2], the “CTL activity against target cells pulsed with the cytotoxic T cell epitope E7” value is “higher levels of CTL activity”. Further, in data set [3], the “production of TNF-α cytokine by THP-1” value is recorded as “able to induce the production”. In addition, in data set [4], the “number of IFN-γ producing spots specific for E7(49-57)” value is recorded as “higher number of IFN-γ producing spots”. Moreover, the “number of IFN-γ producing spots specific for TC1 cells” value in data set [4] (irradiated TC1 cells) is reported as “higher number of IFN-γ producing spots”. Also, in data set [1], the “tumor eradication (in words)” value is recorded as “unable to eradicate the tumors” and the tumor growth result is recorded as “a delay in tumor growth was observed”. In data set [5], the “production of IL-12 cytokine by BMDC” value is on record as “able to strongly stimulate the production”. In data set [6], the “expression of the maturation marker CD54” value is recorded as “able to upregulate expression” and the “expression of the maturation marker IAb” value is “able to upregulate expression”.

Values taken from US20120237535A1, “Therapeutic Compositions For The Treatment of HPV-Induced Diseases” (priority 2009, published 2012).
